# Test results taken from PubChem BioAssay (NCI).
#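 Values below derive from 48-hour exposures of cells grown in 96-well plates, with endpoints linearly interpolated between the two concentrations bracketing the appropriate inhibition level. The concentration for 50% growth inhibition is given as GI50. TGI: concentration producing complete growth inhibition.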 Where a SMILES comes first, the peptide text is derived from it. [ ]: non-standard residue; d: D form. The star is where a group is joined. ξ: configuration not given here. ξNMeF = CNC(Cc1ccccc1)C(=O)O; NMeV = CN[C@H](C(=O)O)C(C)C; Boc = CC(C)(C)OC(=O)*; OBn = c1ccc(CO*)cc1
# Tests used:
# Test in all cases: NCI-60 cell line screen, 48 h
# HCT-116 colon = tested on: HCT-116 colon
# SW-620 colon = tested on: SW-620 colon
# U251 CNS = tested on: U251 CNS
# SK-MEL-5 melanoma = tested on: SK-MEL-5 melanoma
# COLO 205 colon = tested on: COLO 205 colon
# K-562 leukemia = tested on: K-562 leukemia
# NCI-H460 lung = tested on: NCI-H460 lung
# A498 renal = tested on: A498 renal
# HOP-92 NSCLC = tested on: HOP-92 NSCLC
# IGROV1 ovarian = tested on: IGROV1 ovarian
# RPMI-8226 leukemia = tested on: RPMI-8226 leukemia
# ACHN renal = tested on: ACHN renal
# 786-0 renal = tested on: 786-0 renal
# M14 melanoma = tested on: M14 melanoma
SMILES,TGI (HCT-116 colon),TGI (SW-620 colon),TGI (U251 CNS),TGI (SK-MEL-5 melanoma),TGI (COLO 205 colon),TGI (K-562 leukemia),TGI (NCI-H460 lung),TGI (A498 renal),TGI (HOP-92 NSCLC),TGI (IGROV1 ovarian),TGI (RPMI-8226 leukemia),TGI (ACHN renal),TGI (786-0 renal),TGI (M14 melanoma),GI50 (HOP-92 NSCLC)
O=C(O)CCC(NC(=O)c1ccc(Nc2cnc3cc(C(F)(F)F)ccc3n2)cc1)C(=O)O (configuration not stated),> 100 µM,> 100 µM,> 100 µM,> 100 µM,> 100 µM,> 100 µM,> 100 µM,> 100 µM,> 100 µM,> 100 µM,> 100 µM,,,,
O=C1c2ccccc2C(=O)N1CCCOCc1c[nH]c(=O)[nH]c1=O,> 100 µM,> 100 µM,> 100 µM,> 100 µM,> 100 µM,> 100 µM,> 100 µM,> 100 µM,> 100 µM,> 100 µM,> 100 µM,> 100 µM,> 100 µM,> 100 µM,
C=CCCCCCCCCCP(=O)(c1ccccc1)c1ccc2c(c1)OCCOCCOCCOCCO2 (configuration not stated),25.1 µM,29.9 µM,29.3 µM,24.2 µM,31 µM,24.6 µM,26.4 µM,27.7 µM,> 100 µM,30.2 µM,31.8 µM,31.4 µM,29.8 µM,> 100 µM,
Cc1ccc(Nc2cccc3c2C(=O)c2cccc(Nc4ccc(C)cc4S(=O)(=O)O)c2C3=O)c(S(=O)(=O)O)c1,> 100 µM,> 100 µM,> 100 µM,> 100 µM,> 100 µM,> 100 µM,> 100 µM,> 100 µM,,> 100 µM,> 100 µM,> 100 µM,> 100 µM,> 100 µM,
Cc1cc(O)c2c(c1)C(=O)c1c(c(O)cc(O)c1-c1c(O)cc(O)c3c1C(=O)c1cc(C)cc(O)c1C3=O)C2=O,33.7 µM,124 µM,46 µM,30.6 µM,> 71.7 µM,55.6 µM,55.3 µM,40.4 µM,34.4 µM,52.6 µM,32.9 µM,,,,
O=C(NN1C(=O)CS(=O)(=O)C1c1ccc(Cl)c(Cl)c1)c1ccncc1 (configuration not stated),> 100 µM,> 100 µM,> 100 µM,> 100 µM,> 100 µM,> 100 µM,> 100 µM,> 100 µM,> 100 µM,> 100 µM,> 71.5 µM,,,,
COc1cccc(NC(=O)CSc2nnc(Cc3ccccc3)o2)c1,> 100 µM,> 100 µM,> 100 µM,> 100 µM,> 100 µM,> 100 µM,> 100 µM,> 100 µM,,> 100 µM,> 100 µM,63.6 µM,> 100 µM,> 100 µM,
CCN(CC)C(=O)CCn1cc(F)c(=O)[nH]c1=O,> 100 µM,> 100 µM,> 100 µM,> 100 µM,> 100 µM,> 100 µM,> 100 µM,,,> 100 µM,> 100 µM,> 100 µM,> 100 µM,> 100 µM,
CC(C)[C@@H](C(=O)N(C)[C@H](C(=O)N1CCC[C@H]1C(=O)OCc1ccccc1)C(C)C)N(C)C(=O)C(Cc1ccccc1)N(C)C(=O)[C@H](NC(=O)OC(C)(C)C)C(C)C (some centres not stated) (Boc-[dV][ξNMeF][NMeV][NMeV]P-OBn),> 31.6 µM,> 31.6 µM,> 31.6 µM,23 µM,> 100 µM,> 31.6 µM,> 31.6 µM,> 31.6 µM,> 31.6 µM,> 31.6 µM,> 31.6 µM,> 100 µM,> 69.7 µM,> 100 µM,
C=C1CC(OC)(C(OC)C(=O)N[C@H]2OCO[C@H]3C2O[C@H](C[C@@H](COC)OC)C(C)(C)C3OC)O[C@H](C)[C@@H]1C (some centres not stated),5.77 µM,15 µM,4.13 µM,1.3 µM,4.72 µM,3.38 µM,5.96 µM,2.58 µM,4.76 µM,12.3 µM,0.917 µM,,,,
COc1ccc2c(c1)CCc1c-2[nH]c2cc3c(cc2c1=O)OCO3,,> 100 µM,> 100 µM,,> 100 µM,> 100 µM,> 100 µM,,> 100 µM,> 100 µM,> 100 µM,> 100 µM,> 100 µM,> 100 µM,
CNC(=O)C(C)Oc1ccc(OCC2CCCCC2)cc1 (configuration not stated),> 100 µM,,> 100 µM,> 100 µM,,> 100 µM,> 100 µM,> 100 µM,,> 100 µM,,> 100 µM,> 100 µM,> 100 µM,
CC(=O)[O-].CC(=O)[O-].O=C(N/N=C/c1cc(Cl)cc(Cl)c1[OH2+])c1ccncc1.[Mn+2],17.7 µM,8.09 µM,24.3 µM,11 µM,10.9 µM,14.8 µM,15.8 µM,41 µM,9.91 µM,10.7 µM,8.88 µM,13.8 µM,15.6 µM,13.6 µM,4.71 µM
Cc1cc(=O)oc2c1cc1ccc3cccc4ccc2c1c34,,> 100 µM,> 100 µM,> 100 µM,> 100 µM,> 100 µM,> 100 µM,> 100 µM,> 100 µM,> 100 µM,> 100 µM,> 100 µM,,> 100 µM,
